Data as given in the NIST ThermoML archive (doi:10.1021/je200972w).
± gives the expanded uncertainty stated by the source.

Conditions: Liquid, Ebulliometric method (Recirculating still)

| vapor or sublimation pressure (337.42 K) [kPa] | Structure (SMILES) | vapor or sublimation pressure (329 K) [kPa] |
| --- | --- | --- |
| 100 ± 0.7 | CO [methanol] | – |
| – | CC(C)=O [acetone] | 100 ± 0.7 |
